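Test compounds were applied to cells in 96-well plates for 48 hours at 5 doses. Abbreviation: GI50, concentration required for 50% inhibition of growth. TGI marks complete inhibition of growth.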
Tests used:
Experiment in all cases: inhibition of tumour cell growth, NCI panel, 48 h
HOP-92 NSCLC = test system: HOP-92 NSCLC
DU-145 prostate = test system: DU-145 prostate
HL-60(TB) leukemia = test system: HL-60(TB) leukemia
UO-31 renal = test system: UO-31 renal
SF-268 CNS = test system: SF-268 CNS
HOP-62 NSCLC = test system: HOP-62 NSCLC
SW-620 colon = test system: SW-620 colon
OVCAR-8 ovarian = test system: OVCAR-8 ovarian
SN12C renal = test system: SN12C renal
HT29 colon = test system: HT29 colon

Compound	GI50 (HOP-92 NSCLC) [µM]	TGI (HOP-92 NSCLC) [µM]	GI50 (DU-145 prostate) [µM]	TGI (DU-145 prostate) [µM]	GI50 (HL-60(TB) leukemia) [µM]	TGI (HL-60(TB) leukemia) [µM]	GI50 (UO-31 renal) [µM]	TGI (UO-31 renal) [µM]	GI50 (SF-268 CNS) [µM]	TGI (SF-268 CNS) [µM]	GI50 (HOP-62 NSCLC) [µM]	TGI (HOP-62 NSCLC) [µM]	TGI (SW-620 colon) [µM]	TGI (OVCAR-8 ovarian) [µM]	TGI (SN12C renal) [µM]	TGI (HT29 colon) [µM]	GI50 (SW-620 colon) [µM]	GI50 (OVCAR-8 ovarian) [µM]	GI50 (SN12C renal) [µM]	GI50 (HT29 colon) [µM]
COc1ccc2c(c1)c(-c1nc(-c3c[nH]c4ncccc34)cs1)cn2CCCCN1CCCCC1	1.18	2.48	1.73	3.22	1.72	3.54	1.38	2.77	1.59	3.21	1.48	2.95								
Cc1nc2ccc(S(=O)(=O)Nc3nccs3)cc2c(=O)n1NS(=O)(=O)c1nccs1		> 100		> 100		> 100		> 100		> 100		> 100	> 100	> 100	> 100	> 100				
CN(C)CCNC(=O)c1cccc2[nH]c(-c3ccccn3)nc12		80.8				> 78.7		> 72.4		> 59.3		> 90.8	> 100	> 100	> 100	> 66.7				
CCOC(=O)c1sc2nc(SC)nc(Nc3ccc4c(c3)OCCO4)c2c1N		27.4		33.5		> 100		36.7		20.4		29.5	> 100	23.1	29.9	53.3				
CNC(C)C(O)c1ccc2oc3cc(=O)c4ccccc4c-3nc2c1 (stereo not drawn)		> 100		18		> 100		67		> 100		18.1	> 100	> 100	25.1	> 100				
CCCCC1C=Cn2c(=O)oc3c(OC(C)C)c(C)c(O)c1c32 (stereo not drawn)		12.2		5.5		1.88		7.02		13.2		10.5	11.9	11.4	3.71	11.7				
O=C1c2ccccc2OCC12OC21C=CC(Cl)=CC1 (stereo not drawn)		> 100		38.6		37.3		65.1		> 100		92.1	> 100		35.3	36.5				
O=C(CBr)c1ccc2cc(Br)c3ccccc3c2c1		45.7		46.4		69.6		62.7		47		> 100	74.4	55.8		> 100				
CCC(=O)OCN(C)c1nc(N(C)COC(=O)CC)nc(N(C)COC(=O)CC)n1		> 100		> 100				> 100				> 100	> 100	> 100	> 100	98.3				
O=C(N[C@@H](Cc1coc2ccccc12)B(O)O)[C@@H]1C[C@H]2CC[C@@H]1O2	5.06	80.8	7.5	> 100	3.05	> 100	2	11.3	9.62	> 100	3.65	43.6	> 100	> 100	> 100	> 100	3.3	80.8	9.24	3.77
COc1ccc(C2COc3c(ccc(O)c3C)C2)cc1OC (stereo not drawn)		> 186				140		178		> 200		> 200	> 200	> 200	> 200	> 200				
COc1ccc(/C=N/n2cnc3c(c2=O)SC(=C(C#N)C#N)N3c2ccccc2)cc1		> 100				> 100		> 100		> 100		> 100	> 100	> 100		> 100				
CCCO[C@@H]1[C@@H](OC(C)=O)[C@@H](OC(C)=O)C(C)(C)/C=C/[C@H](C)C(=O)[C@@]2(OC(C)=O)C[C@@](C)(OC(C)=O)[C@H](OC(C)=O)[C@@H]2[C@H]2OC(=O)CC[C@@]12OC(=O)c1ccccc1		> 25		> 25		> 25		> 25		> 25		> 25	> 25	> 25	> 25	> 25				
COC(=O)C1=C(OC)[C@H]2C#C/C=C\C#C[C@@H]3Nc4c(cc(O)c5c4C(=O)c4ccccc4C5=O)[C@]24O[C@@]34[C@H]1C		< 0.01		< 0.01		< 0.01		< 0.01		< 0.0341		< 0.01	0.0486	< 0.01	< 0.01	< 0.0409				
C/C(=N\NC(=S)N1CCCC1)c1nc2ncccc2[nH]1		8.5		13.1		> 100		0.492		> 100		24.6	64.4	39.9	> 100	20.2				
C(=Nc1ccc2c(c1)Cc1ccccc1-2)c1ccccn1		> 100		> 100				> 100		> 100		> 100	> 100	> 100	90.3	> 100				
